The source made the active and inactive calls. How the calls were made is not given here.
Tested on: CCHF-vOTU
Assay: PubChem AID 743476
Conditions: Recombinant CCHFV vOTU, PEP-AMC fluorescence cleavage, with PEP-AMC substrate, hits give high values

In the case of `O=C(COC(=O)c1ccc([N+](=O)[O-])s1)NCc1ccc(F)cc1`, the inhibition (Assay 1, at 8.08 µM) is reported as -23.4% (inactive), the inhibition (Assay 2, at 8.08 µM) is reported as 7.84% (inactive) and the inhibition (Assay 3, at 2.56 µM) is reported as 11.4% (inactive).
With `CC1COCC(C)N1C1=C(Cl)C(=O)c2ccccc2C1=O` (stereo not drawn) the inhibition (Assay 1, at 5.07 µM) was 0.67% (inactive), the inhibition (Assay 2, at 5.07 µM) was 14% (inactive) and the inhibition (Assay 3, at 10.14 µM) was 17.6% (inactive).
`CCOC(=O)C1=C(COC(=O)c2ccc([N+](=O)[O-])s2)NC(=O)NC1C` (stereo not drawn) was tested, and the inhibition (Assay 1, at 7.84 µM) was 5.42% (inactive), the inhibition (Assay 2, at 7.84 µM) was 9.9% (inactive) and the inhibition (Assay 3, at 15.68 µM) was 6% (inactive).
For `O=C(NC1=C(NC2CCS(=O)(=O)C2)C(=O)c2ccccc2C1=O)c1ccccc1` (stereo not drawn), the inhibition (Assay 1, at 3.9 µM) was 4.88% (inactive) and the inhibition (Assay 2, at 3.9 µM) was 22.6%.
`COc1cc(C(=O)c2nccc3cc(OC)c(OC)cc23)c([N+](=O)[O-])cc1OC` was tested, and the inhibition (Assay 1, at 1.05 µM) was 6.05% (inactive), the inhibition (Assay 2, at 1.05 µM) was 15% (inactive) and the inhibition (Assay 3, at 2.1 µM) was 17.8% (inactive).
For `Cc1ccc2c(c1C)-c1c(ccc(C)c1C)C(=O)C2=O`, the inhibition (Assay 1, at 7.79 µM) was -37.1% (inactive), the inhibition (Assay 2, at 7.79 µM) was 18% (inactive) and the inhibition (Assay 3, at 15.58 µM) was 38.4%.
With `CC1CCCC(NC(=O)COC(=O)c2ccc([N+](=O)[O-])s2)C1C` (stereo not drawn) the inhibition (Assay 1, at 9.22 µM) was 37.2%, the inhibition (Assay 2, at 9.22 µM) was 8.38% (inactive) and the inhibition (Assay 3, at 18.44 µM) was 13.5% (inactive).
In the case of `Cc1c(Cl)cnc(NC(=O)COC(=O)c2ccc([N+](=O)[O-])s2)c1Cl`, the inhibition (Assay 1, at 7.08 µM) is reported as 9.06% (inactive), the inhibition (Assay 2, at 7.08 µM) is reported as 5.86% (inactive) and the inhibition (Assay 3, at 14.16 µM) is reported as 14.2% (inactive).
`COc1cc(NCCCC(C)N)c2ncccc2c1` (stereo not drawn) was tested, and the inhibition (Assay 1, at 2.52 µM) was 25.6%, the inhibition (Assay 2, at 2.52 µM) was 0.7% (inactive) and the inhibition (Assay 3, at 5.04 µM) was -1.2% (inactive).
Work on `CN(C1=C(NC(=O)c2ccccc2)C(=O)c2ccccc2C1=O)C1CCS(=O)(=O)C1` (stereo not drawn) yielded an inhibition (Assay 1, at 2.43 µM) of 54.2% and an inhibition (Assay 2, at 2.43 µM) of 22.7%.
For `O=C(/C=C/c1ccc(O)cc1)c1ccc(NC2=C(N3CCCCC3)C(=O)c3ccccc3C2=O)cc1`, the inhibition (Assay 1, at 3.35 µM) was 14.3% (inactive), the inhibition (Assay 2, at 3.35 µM) was 16.3% (inactive) and the inhibition (Assay 3, at 6.7 µM) was 33.6%.
`COc1ccccc1NC(=O)COC(=O)c1ccc([N+](=O)[O-])s1` was tested, and the inhibition (Assay 1, at 9.94 µM) was -1.05% (inactive), the inhibition (Assay 2, at 9.94 µM) was 9.34% (inactive) and the inhibition (Assay 3, at 19.88 µM) was 20%.
For `O=C(COC(=O)c1ccc([N+](=O)[O-])s1)Nc1ccccc1`, the inhibition (Assay 2, at 10.31 µM) was 8.51% (inactive) and the inhibition (Assay 3, at 20.62 µM) was 4.9% (inactive).
For `O=C(OCc1nnc(-c2ccccc2)o1)c1ccc([N+](=O)[O-])s1`, the inhibition (Assay 1, at 7.52 µM) was 3.79% (inactive), the inhibition (Assay 2, at 7.52 µM) was -3.16% (inactive) and the inhibition (Assay 3, at 15.04 µM) was 25%.
For `Cc1cnc(C2OCCO2)c2cccc(N)c12`, the inhibition (Assay 1, at 2.56 µM) was 16.2% (inactive), the inhibition (Assay 2, at 2.56 µM) was 0.6% (inactive) and the inhibition (Assay 3, at 5.12 µM) was 1% (inactive).
With `O=C(COC(=O)c1ccc([N+](=O)[O-])s1)Nc1ccc(F)cc1` the inhibition (Assay 1, at 7.8 µM) was 9.26% (inactive), the inhibition (Assay 2, at 7.8 µM) was 9.2% (inactive) and the inhibition (Assay 3, at 15.6 µM) was 17.4% (inactive).
`O=C1Cc2ccccc2C(=O)N1CCc1ccccc1` was tested, and the inhibition (Assay 1, at 1.14 µM) was 12.7% (inactive) and the inhibition (Assay 2, at 1.14 µM) was 57.5%.
In the case of `COc1cc(NC(=O)COC(=O)c2ccc([N+](=O)[O-])s2)cc(OC)c1OC`, the inhibition (Assay 1, at 6.6 µM) is reported as 7.4% (inactive), the inhibition (Assay 2, at 6.6 µM) is reported as 4.53% (inactive) and the inhibition (Assay 3, at 13.2 µM) is reported as 11.9% (inactive).
`O=C(NC1=CC(=O)c2ccccc2C1=O)c1ccccc1` was tested, and the inhibition (Assay 1, at 3.85 µM) was 5.25% (inactive), the inhibition (Assay 2, at 3.85 µM) was 9.67% (inactive) and the inhibition (Assay 3, at 7.7 µM) was 16.4% (inactive).
In the case of `CCC(CNc1cc(OC)cc2cccnc12)NC1CCCCC1` (stereo not drawn), the inhibition (Assay 1, at 6.32 µM) is reported as -27% (inactive), the inhibition (Assay 2, at 6.32 µM) is reported as 13.6% (inactive) and the inhibition (Assay 3, at 12.64 µM) is reported as 52.4%.
Compound `Cc1ccccc1-c1cc2c(nn1)-c1ccccc1C2=O` has an inhibition (Assay 1, at 0.46 µM) of 27.6% and an inhibition (Assay 2, at 0.46 µM) of 24.5%.

From PubChem BioAssay AID743476 (The Scripps Research Institute Molecular Screening Center, 2014)
